Measured values published in US4935438A, “Dopamine-β-hydroxylase inhibitors” (SmithKline Beckman Corporation, priority 1987, dated 1990).

Legend:
[1] = molecular target: T1, DBH (Homo sapiens, UniProt P09172); conditions: cited from earlier work; for DBH inhibition: literature report; for mode of DBH inhibition: literature
T1 sequence (P09172 1-617): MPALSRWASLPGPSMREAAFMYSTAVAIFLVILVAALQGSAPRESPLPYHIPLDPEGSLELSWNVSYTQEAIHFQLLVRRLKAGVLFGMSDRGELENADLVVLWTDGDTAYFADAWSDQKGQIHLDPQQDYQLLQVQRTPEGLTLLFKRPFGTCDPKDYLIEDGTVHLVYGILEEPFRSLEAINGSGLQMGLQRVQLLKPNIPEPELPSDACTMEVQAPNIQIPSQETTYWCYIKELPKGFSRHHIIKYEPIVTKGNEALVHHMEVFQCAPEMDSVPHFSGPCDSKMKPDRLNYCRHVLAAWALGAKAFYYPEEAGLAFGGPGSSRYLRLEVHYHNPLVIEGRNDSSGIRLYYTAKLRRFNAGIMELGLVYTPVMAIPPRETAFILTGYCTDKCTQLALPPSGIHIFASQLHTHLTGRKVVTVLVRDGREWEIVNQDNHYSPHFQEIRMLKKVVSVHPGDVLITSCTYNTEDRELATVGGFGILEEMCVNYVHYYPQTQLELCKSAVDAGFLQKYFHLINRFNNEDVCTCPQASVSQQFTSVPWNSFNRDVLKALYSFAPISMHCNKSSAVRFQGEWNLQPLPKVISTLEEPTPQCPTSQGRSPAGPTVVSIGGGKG

[2] = test system: Spontaneously hypertensive rats; experiment: mean arterial blood pressure in spontaneously hypertensive rats; assay type: in vivo, rat; conditions: 50 mg/kg intraperitoneally, vs vehicle treated controls
Description: Spontaneously hypertensive rats were treated with 2-(carboxymethylthio)-1-(3,5-difluorobenzyl)imidazole at a dose of 50 mg/kg intraperitoneally, and mean arterial blood pressure was monitored for four hours using an indwelling cannula in the femoral artery. […] The maximal blood pressure reduction was approximately 43 mmHg.

## CN(C)C(=S)SCc1ccc(C(=O)O)nc1 [5-(dimethyldithiocarbamoylmethyl)picolinic acid]
[1]
  DBH inhibition: DBH inhibitors

## O=C(O)c1ccc(CCC(Br)CBr)cn1 (stereo not drawn) [5-(3,4-dibromobutyl)picolinic acid]
[1]
  DBH inhibition: DBH inhibitors

## O=C(O)c1ccc(CCCCCl)cn1 [5-(4-chlorobutyl) picolinic acid]
[1]
  DBH inhibition: inhibit DBH

## CCCCc1ccc(C(N)=O)nc1 [Bupicomide, 5(n-butyl)picolinamine]
[1]
  DBH inhibition: DBH inhibitor

## O=C(O)CSc1nccn1Cc1cc(F)cc(F)c1 [2-(Carboxymethylthio)-1-(3,5-difluorobenzyl)imidazole]
[2]; monitored for four hours
  maximal blood pressure reduction: approximately 43 mmHg
  time blood pressure remained significantly reduced: 4 h
[2]
  time to significant blood pressure reductions following treatment: ≤ 30 min

## NNCc1ccccc1 [benzylhydrazine]
[1]
  mode of DBH inhibition: apparently act as competitive inhibitors

## NOCc1ccccc1 [Benzyloxyamine]
[1]
  mode of DBH inhibition: apparently act as competitive inhibitors
